Measurements as given in patent US8877744B2, “1,4-Oxazepines as BACE1 and/or BACE2 inhibitors” (Hoffmann-La Roche Inc., priority 2011, dated 2014).
Structures can show the parent of a compound that is named as a salt.

Molecular target: T1, BACE1 (Homo sapiens, UniProt P56817)
T1 construct: endogenous in cells; host or cells: HEK293 stably transfected with human APP695 wt
Assay: Cellular Aβ-lowering assay b): HEK293 APP Abeta 40 AlphaLISA Assay
Format: cell-based
Details: assay b): HEK293 APP cells, Aβ 40 in supernatant by AlphaLISA, 18-20 hrs incubation
Experimental: b) HEK293 APP: Abeta 40 AlphaLISA Assay
The cells were seeded in 96 well Microtiter plates in cell culture medium (Iscove's, plus 10% (v/v) fetal bovine serum, penicillin/streptomycin) to about 80% confluency and the compounds were added at a 3× concentration in ⅓ volume of culture medium (final DMSO concentration was kept at 1% v/v). After 18-20 hrs incubation at 37° C. and 5% CO2 in a humidified incubator, the culture supernatants were harvested for the determination of Aβ 40 concentrations using Perkin-Elmer Human Amyloid beta 1-40 (high specificity) Kit (Cat#AL275C).
In a Perkin-Elmer White Optiplate-384 (Cat#6007290), […] culture supernatants were combined with 2 μl of a 10X AlphaLISA Anti-hAβ Acceptor beads+Biotinylated Antibody Anti-Aβ 1-40 Mix (50 μg/mL/5 nM). After 1 hour room temperature incubation, 16 μl of a 1.25× preparation of Streptavidin (SA) Donor beads (25 μg/mL) were added and incubated for 30 minutes in the Dark. Light Emission at 615 nm was then recorded using EnVision-Alpha Reader. Levels of Aβ 40 in the culture supernatants were calculated as percentage of maximum signal (cells treated with 1% DMSO without inhibitor). The IC50 values were calculated using the Excel XLfit software.

T1 sequence (P56817 46-501): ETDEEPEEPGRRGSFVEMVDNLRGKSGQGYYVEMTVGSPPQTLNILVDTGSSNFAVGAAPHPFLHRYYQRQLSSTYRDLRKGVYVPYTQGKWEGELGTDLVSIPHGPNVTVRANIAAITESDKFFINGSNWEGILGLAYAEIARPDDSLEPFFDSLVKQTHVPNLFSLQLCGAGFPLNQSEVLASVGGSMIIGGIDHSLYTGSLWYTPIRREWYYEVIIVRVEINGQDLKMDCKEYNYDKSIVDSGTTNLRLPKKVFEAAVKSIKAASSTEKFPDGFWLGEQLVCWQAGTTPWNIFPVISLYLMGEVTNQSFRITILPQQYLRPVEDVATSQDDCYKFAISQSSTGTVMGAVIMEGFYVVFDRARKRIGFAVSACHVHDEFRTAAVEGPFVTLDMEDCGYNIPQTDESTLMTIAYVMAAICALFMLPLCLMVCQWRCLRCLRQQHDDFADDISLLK

Row | IC50 [µM] | Compound
1 | 0.55 | CC1(C)OCC(N)=N[C@](C)(c2cc(-c3nc4cc(F)c(F)cc4o3)c(F)cc2F)C1(F)F [Example 42, (R)-5-[5-(5,6-Difluoro-benzooxazol-2-yl)-2,4-difluoro-phenyl]-6,6-difluoro-5,7,7-trimethyl-2,5,6,7-tetrahydro-[1,4]oxazepin-3-ylamine]
2 | 0.07 | CC1(C)OCC(N)=N[C@](C)(c2cc(-c3nc4ccc(C(F)(F)F)cc4o3)c(F)cc2F)C1(F)F [Example 43, (R)-5-[2,4-Difluoro-5-(6-trifluoromethyl-benzooxazol-2-yl)-phenyl]-6,6-difluoro-5,7,7-trimethyl-2,5,6,7-tetrahydro-[1,4]oxazepin-3-ylamine]

Molecular target: T1, BACE1
Assay: Cellular Aβ-lowering assay a): HEK293 cells expressing human APP695, Aβ40 ELISA
Format: cell-based
Details: Aβ40 in supernatant by ELISA, 18-20 hrs incubation
Experimental: Cellular Aβ-Lowering Assay:
a) Human HEK293 cells which are stably transfected with a vector expressing a cDNA of the human APP wt gene (APP695) were used to assess the potency of the compounds in a cellular assay. The cells were seeded in 96-well microtiter plates in cell culture medium (Iscove, plus 10% (v/v) fetal bovine serum, glutamine, penicillin/streptomycin) to about 80% confluence and the compounds were added at a 10× concentration in 1/10 volume of medium without FCS containing 8% DMSO (final concentration of DMSO was kept at 0.8% v/v). After 18-20 hrs incubation at 37° C. and 5% CO2 in a humidified incubator the culture supernatant was harvested for the determination of Aβ40 concentrations. 96 well ELISA plates (e.g., Nunc MaxiSorb) were coated with monoclonal antibody which specifically recognize the C-terminal end of Aβ40 (Brockhaus et al., NeuroReport 9, 1481-1486; 1998). After blocking of non-specific binding sites with e.g. 1% BSA and washing, the culture supernatants were added in suitable dilutions together with a horseradish peroxidase-coupled Aβ detection antibody (e.g., antibody 4G8, Senetek, Maryland Heights, Mo.) and incubated for 5 to 7 hrs. Subsequently the wells of the microtiter plate were washed extensively with Tris-buffered saline containing 0.05% Tween 20 and the assay was developed with tetramethylbenzidine/H2O2 in citric acid buffer. After stopping the reaction with one volume 1 N H2SO4 the reaction was measured in an ELISA reader at 450 nm wavelength. The concentrations of Aβ in the culture supernatants were calculated from a standard curve obtained with known amounts of pure Aβ peptide.

Row | IC50 [µM] | Compound
3 | 0.253 | C[C@]1(c2cc(-c3cncnc3)ccc2F)N=C(N)COCC1(F)F [Example 1, (R)-6,6-Difluoro-5-(2-fluoro-5-pyrimidin-5-yl-phenyl)-5-methyl-2,5,6,7-tetrahydro-[1,4]oxazepin-3-ylamine formate]
4 | 0.056 | CC1(C)OCC(N)=N[C@](C)(c2cc(-c3cncnc3)ccc2F)C1(F)F [Example 2, (R)-6,6-Difluoro-5-(2-fluoro-5-pyrimidin-5-yl-phenyl)-5,7,7-trimethyl-2,5,6,7-tetrahydro-[1,4]oxazepin-3-ylamine]
5 | 0.18 | CC1(C)OCC(N)=N[C@](C)(c2cc(-c3cc(F)cc(F)c3)ccc2F)C1(F)F [Example 3, (R)-6,6-Difluoro-5,7,7-trimethyl-5-(4,3′,5′-trifluoro-biphenyl-3-yl)-2,5,6,7-tetrahydro-[1,4]oxazepin-3-ylamine]
6 | 0.43 | CC1(C)OCC(N)=N[C@](C)(c2cc(C3=CCOCC3)ccc2F)C1(F)F [Example 5, (R)-5-[5-(3,6-Dihydro-2H-pyran-4-yl)-2-fluoro-phenyl]-6,6-difluoro-5,7,7-trimethyl-2,5,6,7-tetrahydro-[1,4]oxazepin-3-ylamine]
7 | 0.52 | CC1(C)OCC(N)=N[C@](C)(c2cc(-c3cnn(-c4ccc(F)cc4)c3)ccc2F)C1(F)F [Example 6, (R)-6,6-Difluoro-5-{2-fluoro-5-[1-(4-fluoro-phenyl)-1H-pyrazol-4-yl]-phenyl}-5,7,7-trimethyl-2,5,6,7-tetrahydro-[1,4]oxazepin-3-ylamine]
8 | 0.54 | Cn1nccc1-c1ccc(F)c([C@@]2(C)N=C(N)COC(C)(C)C2(F)F)c1 [Example 7, (R)-6,6-Difluoro-5-[2-fluoro-5-(2-methyl-2H-pyrazol-3-yl)-phenyl]-5,7,7-trimethyl-2,5,6,7-tetrahydro-[1,4]oxazepin-3-ylamine]
9 | 0.65 | CC1(C)OCC(N)=N[C@](C)(c2cc(C3CCOCC3)ccc2F)C1(F)F [Example 8, (R)-6,6-Difluoro-5-[2-fluoro-5-(tetrahydro-pyran-4-yl)-phenyl]-5,7,7-trimethyl-2,5,6,7-tetrahydro-[1,4]oxazepin-3-ylamine]
10 | 1.34 | CC1(C)OCC(N)=N[C@](C)(c2cc(C#Cc3cccc(Cl)c3)ccc2F)C1(F)F [Example 9, (R)-5-[5-(3-Chloro-phenylethynyl)-2-fluoro-phenyl]-6,6-difluoro-5,7,7-trimethyl-2,5,6,7-tetrahydro-[1,4]oxazepin-3-ylamine]
11 | 0.092 | CC1(C)OCC(N)=N[C@](C)(c2cc(-c3ccc(C#N)cc3F)ccc2F)C1(F)F [Example 13, 3′-((R)-3-amino-6,6-difluoro-5,7,7-trimethyl-2,5,6,7-tetrahydro-[1,4]oxazepin-5-yl)-2,4′-difluoro-biphenyl-4-carbonitrile]
12 | 0.8 | Cc1nc(C#Cc2ccc(F)c([C@@]3(C)N=C(N)COC(C)(C)C3(F)F)c2)cs1 [Example 17, (R)-6,6-Difluoro-5-[2-fluoro-5-(2-methyl-thiazol-4-ylethynyl)-phenyl]-5,7,7-trimethyl-2,5,6,7-tetrahydro-[1,4]oxazepin-3-ylamine]
13 | 0.25 | CC1(C)OCC(N)=N[C@](C)(c2cc(-c3nc4ccc(Cl)cc4o3)ccc2F)C1(F)F [Example 19, (R)-5-[5-(6-Chloro-benzooxazol-2-yl)-2-fluoro-phenyl]-6,6-difluoro-5,7,7-trimethyl-2,5,6,7-tetrahydro-[1,4]oxazepin-3-ylamine hydrochloride]
14 | 0.007 | CC1(C)OCC(N)=N[C@](C)(c2cc(-c3cncnc3)c(F)cc2F)C1(F)F [Example 25, (R)-6,6-Difluoro-5-(2,4-difluoro-5-pyrimidin-5-yl-phenyl)-5,7,7-trimethyl-2,5,6,7-tetrahydro-[1,4]oxazepin-3-ylamine]
15 | 0.081 | CC1(C)OCC(N)=N[C@](C)(c2cc(-c3cncc(Cl)c3)c(F)cc2F)C1(F)F [Example 26, (R)-5-[5-(5-Chloro-pyridin-3-yl)-2,4-difluoro-phenyl]-6,6-difluoro-5,7,7-trimethyl-2,5,6,7-tetrahydro-[1,4]oxazepin-3-ylamine]
16 | 0.43 | CC1(C)OCC(N)=N[C@](C)(c2cc(-c3ccc(C#N)cc3)c(F)cc2F)C1(F)F [Example 27, 5′-((R)-3-amino-6,6-difluoro-5,7,7-trimethyl-2,5,6,7-tetrahydro-[1,4]oxazepin-5-yl)-2′,4′-difluoro-biphenyl-4-carbonitrile]
17 | 0.79 | CC1(C)OCC(N)=N[C@](C)(c2cc(-c3cccc(C#N)c3)c(F)cc2F)C1(F)F [Example 28, 5′-((R)-3-Amino-6,6-difluoro-5,7,7-trimethyl-2,5,6,7-tetrahydro-[1,4]oxazepin-5-yl)-2′,4′-difluoro-biphenyl-3-carbonitrile]
